Experimental data from patent publication US20260250290A1 (BRISTOL-MYERS SQUIBB COMPANY, priority 2023, published 2026).

biological target: T1, full length SGK1 (Homo sapiens, UniProt O00141); experiment: SGK1 inhibition Assay A (Caliper LabChip electrophoretic separation of fluorescent peptide substrate and phosphorylated product); format: biochemical; settings: Assay A; 20 μM ATP, 40 min incubation; read-out: SGK1 IC50
T1 construct: 125 μM full length SGK1 (Life Technologies Part #PR7358A); purchased Life Technologies PR7358A
T1 sequence (O00141 1-431): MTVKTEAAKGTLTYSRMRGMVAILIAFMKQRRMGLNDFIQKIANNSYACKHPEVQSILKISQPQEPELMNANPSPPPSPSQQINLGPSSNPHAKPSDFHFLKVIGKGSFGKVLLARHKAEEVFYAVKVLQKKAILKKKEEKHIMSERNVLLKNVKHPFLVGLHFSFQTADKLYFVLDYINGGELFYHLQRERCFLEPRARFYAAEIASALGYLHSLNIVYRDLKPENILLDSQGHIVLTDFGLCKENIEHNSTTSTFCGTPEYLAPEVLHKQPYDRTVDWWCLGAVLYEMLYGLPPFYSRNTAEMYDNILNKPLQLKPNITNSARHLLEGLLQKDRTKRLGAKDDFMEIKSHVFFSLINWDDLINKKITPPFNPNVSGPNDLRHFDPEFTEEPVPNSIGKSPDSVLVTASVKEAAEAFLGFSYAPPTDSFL

In order of falling IC50:
1. CN(C)CCn1c(C(=O)N[C@@H]2CCCN(c3cc(-c4ccc(C#N)nc4)n4ncnc(N)c34)C2)cc2ccccc21 [Example 506, (R)-N-(1-(4-amino-7-(6-cyanopyridin-3-yl)pyrrolo[2,1-f][1,2,4]triazin-5-yl)piperidin-3-yl)-1-(2-(dimethylamino)ethyl)-1H-indole-2-carboxamide]  886 nM
2. COc1cc(C#N)ccc1C(=O)N[C@@H]1CCCN(c2cc(C3=CCN(C(C)=O)C3)n3ncnc(N)c23)C1 [Example 496, (R)-N-(1-(7-(1-acetyl-2,5-dihydro-1H-pyrrol-3-yl)-4-aminopyrrolo[2,1-f][1,2,4]triazin-5-yl)piperidin-3-yl)-4-cyano-2-methoxybenzamide]  344 nM
3. CC(=O)N1CC=C(c2cc(N3CCC[C@@H](NC(=O)c4cc(-c5cncnc5)n[nH]4)C3)c3c(N)ncnn23)C1 [Example 501, (R)-N-(1-(7-(1-acetyl-2,5-dihydro-1H-pyrrol-3-yl)-4-aminopyrrolo[2,1-f][1,2,4]triazin-5-yl)piperidin-3-yl)-3-(pyrimidin-5-yl)-1H-pyrazole-5-carboxamide]  292 nM
4. Nc1ncnn2c(-c3cncnc3)cc(N3CCC[C@@H](NC(=O)c4cc5ccccc5[nH]4)C3)c12 [Example 508, (R)-N-(1-(4-amino-7-(pyrimidin-5-yl)pyrrolo[2,1-f][1,2,4]triazin-5-yl)piperidin-3-yl)-1H-indole-2-carboxamide]  195 nM
5. COC(=O)N1CC=C(c2cc(N3CCC[C@@H](NC(=O)c4cc5ccc(C(F)(F)F)cc5[nH]4)C3)c3c(N)ncnn23)C1 [Example 500, methyl (R)-3-(4-amino-5-(3-(6-(trifluoromethyl)-1H-indole-2-carboxamido)piperidin-1-yl)pyrrolo[2,1-f][1,2,4]triazin-7-yl)-2,5-dihydro-1H-pyrrole-1-carboxylate]  188 nM
6. COC(=O)N1CC=C(c2cc(N3CCC[C@@H](NC(=O)c4cc5cc(F)ccc5[nH]4)C3)c3c(N)ncnn23)C1 [Example 499, methyl (R)-3-(4-amino-5-(3-(5-fluoro-1H-indole-2-carboxamido)piperidin-1-yl)pyrrolo[2,1-f][1,2,4]triazin-7-yl)-2,5-dihydro-1H-pyrrole-1-carboxylate]  121 nM
7. CC(=O)N1CC=C(c2cc(N3CCC[C@@H](NC(=O)c4cccc(C#N)c4)C3)c3c(N)ncnn23)C1 [Example 495, (R)-N-(1-(7-(1-acetyl-2,5-dihydro-1H-pyrrol-3-yl)-4-aminopyrrolo[2,1-f][1,2,4]triazin-5-yl)piperidin-3-yl)-3-cyanobenzamide]  87 nM
8. CC(C)Cn1cc(-c2cc(N3CCC[C@@H](NC(=O)c4cc5ccccc5[nH]4)C3)c3c(N)ncnn23)ccc1=O [Example 507, (R)-N-(1-(4-amino-7-(1-isobutyl-6-ox0-1,6-dihydropyridin-3-yl)pyrrolo[2,1-f][1,2,4]triazin-5-yl)piperidin-3-yl)-1H-indole-2-carboxamide]  82 nM
9. Nc1ncnn2c(-c3ccnc(C(F)F)c3)cc(N3CCC[C@@H](NC(=O)c4nc5ccccc5[nH]4)C3)c12 [Example 489, (R)-N-(1-(4-amino-7-(2-(difluoromethyl)pyridin-4-yl)pyrrolo[2,1-f][1,2,4]triazin-5-yl)piperidin-3-yl)-1H-benzo[d]imidazole-2-carboxamide]  53 nM
10. CC(=O)N1CC=C(c2cc(N3CCC[C@@H](NC(=O)c4cc(-c5ccccc5)ncn4)C3)c3c(N)ncnn23)C1 [Example 492, (R)-N-(1-(7-(1-acetyl-2,5-dihydro-1H-pyrrol-3-yl)-4-aminopyrrolo[2,1-f][1,2,4]triazin-5-yl)piperidin-3-yl)-6-phenylpyrimidine-4-carboxamide]  53 nM
11. COC(=O)N1CC=C(c2cc(N3CCC[C@@H](NC(=O)c4cc5cc(C#N)ccc5[nH]4)C3)c3c(N)ncnn23)C1 [Example 498, Methyl (R)-3-(4-amino-5-(3-(5-cyano-1H-indole-2-carboxamido)piperidin-1-yl)pyrrolo[2,1-f][1,2,4]triazin-7-yl)-2,5-dihydro-1H-pyrrole-1-carboxylate]  41 nM
12. N#Cc1ncc(-c2cc(N3CCC[C@@H](NC(=O)c4ccc(C(F)F)s4)C3)c3c(N)ncnn23)cn1 [Example 502, (R)-N-(1-(4-amino-7-(2-cyanopyrimidin-5-yl)pyrrolo[2,1-f][1,2,4]triazin-5-yl)piperidin-3-yl)-5-(difluoromethyl)thiophene-2-carboxamide]  39 nM
13. CC(=O)N1CC=C(c2cc(N3CCC[C@@H](NC(=O)c4ccc(C#N)cc4)C3)c3c(N)ncnn23)C1 [Example 494, (R)-N-(1-(7-(1-acetyl-2,5-dihydro-1H-pyrrol-3-yl)-4-aminopyrrolo[2,1-f][1,2,4]triazin-5-yl)piperidin-3-yl)-4-cyanobenzamide]  38 nM
14. CC(C)c1cc(C(=O)N[C@@H]2CCCN(c3cc(-c4ccnc(C(F)F)c4)n4ncnc(N)c34)C2)[nH]n1 [Example 486, (R)-N-(1-(4-amino-7-(2-(difluoromethyl)pyridin-4-yl)pyrrolo[2,1-f][1,2,4]triazin-5-yl)piperidin-3-yl)-3-isopropyl-1H-pyrazole-5-carboxamide]  27 nM
15. Cc1nc(C)c(C(=O)N[C@@H]2CCCN(c3cc(-c4ccnc(C(F)F)c4)n4ncnc(N)c34)C2)s1 [Example 485, (R)-N-(1-(4-amino-7-(2-(difluoromethyl)pyridin-4-yl)pyrrolo[2,1-f][1,2,4]triazin-5-yl)piperidin-3-yl)-2,4-dimethylthiazole-5-carboxamide]  26 nM
16. CC(=O)N1CC=C(c2cc(N3CCC[C@@H](NC(=O)c4cc5cnccc5[nH]4)C3)c3c(N)ncnn23)C1 [Example 490, (R)-N-(1-(7-(1-acetyl-2,5-dihydro-1H-pyrrol-3-yl)-4-aminopyrrolo[2,1-f][1,2,4]triazin-5-yl)piperidin-3-yl)-1H-pyrrolo[3,2-c]pyridine-2-carboxamide]  24 nM
17. N#Cc1ccc(-c2cc(N3CCC[C@@H](NC(=O)c4cc5ccccc5[nH]4)C3)c3c(N)ncnn23)cn1 [Example 509, (R)-N-(1-(4-amino-7-(6-cyanopyridin-3-yl)pyrrolo[2,1-f][1,2,4]triazin-5-yl)piperidin-3-yl)-1H-indole-2-carboxamide]  21 nM
18. Nc1ncnn2c(-c3ccc(=O)n(CC(F)F)c3)cc(N3CCC[C@@H](NC(=O)c4cc5ccccc5[nH]4)C3)c12 [Example 503, (R)-N-(1-(4-amino-7-(1-(2,2-difluoroethyl)-6-oxo-1,6-dihydropyridin-3-yl)pyrrolo[2,1-f][1,2,4]triazin-5-yl)piperidin-3-yl)-1H-indole-2-carboxamide]  9 nM
19. COc1ccc2[nH]c(C(=O)N[C@@H]3CCCN(c4cc(C5=CCN(C(C)=O)C5)n5ncnc(N)c45)C3)cc2c1 [Example 491, (R)-N-(1-(7-(1-acetyl-2,5-dihydro-1H-pyrrol-3-yl)-4-aminopyrrolo[2,1-f][1,2,4]triazin-5-yl)piperidin-3-yl)-5-methoxy-1H-indole-2-carboxamide]  6 nM
20. CC(=O)N1CC=C(c2cc(N3CCC[C@@H](NC(=O)c4cc(-c5ccccc5)n[nH]4)C3)c3c(N)ncnn23)C1 [Example 493, (R)-N-(1-(7-(1-acetyl-2,5-dihydro-1H-pyrrol-3-yl)-4-aminopyrrolo[2,1-f][1,2,4]triazin-5-yl)piperidin-3-yl)-3-phenyl-1H-pyrazole-5-carboxamide]  6 nM
21. N#Cc1cc(-c2cc(N3CCC[C@@H](NC(=O)c4ccc(C(F)F)s4)C3)c3c(N)ncnn23)ccn1 [Example 505, (R)-N-(1-(4-amino-7-(2-cyanopyridin-4-yl)pyrrolo[2,1-f][1,2,4]triazin-5-yl)piperidin-3-yl)-5-(difluoromethyl)thiophene-2-carboxamide]  6 nM
22. Nc1ncnn2c(-c3ccnc(C(F)F)c3)cc(N3CCC[C@@H](NC(=O)c4cccs4)C3)c12 [Example 484, (R)-N-(1-(4-amino-7-(2-(difluoromethyl)pyridin-4-yl)pyrrolo[2,1-f][1,2,4]triazin-5-yl)piperidin-3-yl)thiophene-2-carboxamide]  4 nM
23. N#Cc1ccc(-c2cc(N3CCC[C@@H](NC(=O)c4ccc(C(F)F)s4)C3)c3c(N)ncnn23)cn1 [Example 487, (R)-N-(1-(4-amino-7-(6-cyanopyridin-3-yl)pyrrolo[2,1-f][1,2,4]triazin-5-yl)piperidin-3-yl)-5-(difluoromethyl)thiophenc-2-carboxamide]  3 nM
24. Nc1ncnn2c(-c3ccc(=O)n(CC(F)F)c3)cc(N3CCC[C@@H](NC(=O)c4cc(-c5ccccc5)n[nH]4)C3)c12 [Example 504, (R)-N-(1-(4-amino-7-(1-(2,2-difluoroethyl)-6-oxo-1,6-dihydropyridin-3-yl)pyrrolo[2,1-f][1,2,4]triazin-5-yl)piperidin-3-yl)-3-phenyl-1H-pyrazole-5-carboxamide]  2 nM
25. Nc1ncnn2c(-c3ccnc(C(F)F)c3)cc(N3CCC[C@@H](NC(=O)c4cc5ccccc5[nH]4)C3)c12 [Example 488, (R)-N-(1-(4-amino-7-(2-(difluoromethyl)pyridin-4-yl)pyrrolo[2,1-f][1,2,4]triazin-5-yl)piperidin-3-yl)-1H-indole-2-carboxamide]  1 nM
26. NC(=O)c1ccc(-c2cc(N3CCC[C@@H](NC(=O)c4ccc(C(F)F)s4)C3)c3c(N)ncnn23)cc1F [Example 497, (R)-N-(1-(4-amino-7-(4-carbamoyl-3-fluorophenyl)pyrrolo[2,1-f][1,2,4]triazin-5-yl)piperidin-3-yl)-5-(difluoromethyl)thiophene-2-carboxamide]  1 nM
